The values below come from patent publication US10793576B2, “Compound used as Bruton's tyrosine kinase inhibitor and preparation method and application thereof” (Chengdu Brilliant Pharmaceutical Co., LTD., priority 2017, dated 2020).

SMILES strings stand for the structures.

In this test the target is BTK kinase (Homo sapiens (Human), UniProt Q06187). The test can be described thus: In vitro assay for the inhibition of BTK kinase activity (Mobility-Shift Assay). It counts as biochemical. From the text: Mobility-Shift Assay, which is microfluidic chip technology, applies the basic concept of capillary electrophoresis to microfluidic environments. The substrate used for the experiment is a polypeptide with a fluorescent label. Under the action of enzyme in the reaction system, the substrate is transformed into a product, and the charge the substrate carries also changes accordingly. The use of the charge difference between the substrate and the product involved in Mobility-Shift Assay achieves the separating of the two, and they are tested respectively. The test results are expressed by conversion rates.
Sequence of BTK kinase (Q06187 whole entry): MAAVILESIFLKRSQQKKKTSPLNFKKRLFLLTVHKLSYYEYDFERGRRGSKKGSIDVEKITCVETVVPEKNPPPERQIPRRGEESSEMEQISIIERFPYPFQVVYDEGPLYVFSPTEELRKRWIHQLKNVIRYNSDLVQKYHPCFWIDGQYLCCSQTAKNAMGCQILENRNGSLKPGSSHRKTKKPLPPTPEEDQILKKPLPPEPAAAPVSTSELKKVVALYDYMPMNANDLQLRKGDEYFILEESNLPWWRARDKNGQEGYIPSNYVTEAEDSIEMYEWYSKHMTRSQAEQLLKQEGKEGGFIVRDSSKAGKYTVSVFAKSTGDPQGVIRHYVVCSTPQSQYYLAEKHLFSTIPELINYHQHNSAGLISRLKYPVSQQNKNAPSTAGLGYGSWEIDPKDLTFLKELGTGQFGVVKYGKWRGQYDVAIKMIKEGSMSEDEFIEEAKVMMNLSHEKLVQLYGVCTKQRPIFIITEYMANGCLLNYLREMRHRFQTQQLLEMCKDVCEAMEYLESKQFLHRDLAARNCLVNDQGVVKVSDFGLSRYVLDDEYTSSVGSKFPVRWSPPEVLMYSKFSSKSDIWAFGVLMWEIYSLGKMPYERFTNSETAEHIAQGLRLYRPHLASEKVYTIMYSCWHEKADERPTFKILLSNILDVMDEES
(3) 100% DMSO was added to the positive control well and the negative control well, respectively;
One may read the IC50 as the concentration that gives 50% inhibition. `C=CC(=O)N1C(c2nc(-c3ccc(Oc4ccccc4)cc3)c3c(N)nccn23)CC2CC21` (stereo not drawn) [Example 100]: the IC50 was 67 nM.

For the compound `CC(C)/C=C(/C#N)C(=O)N1CC2CCCC2[C@H]1c1nc(-c2ccc(C(=O)Nc3ccccn3)cc2)c2c(N)nccn12` (stereo partly drawn) [Example 117, 4-(8-amino-3-((1S)-2-((Z)-2-cyano-4-methyl-2-pentenoyl)octahydrocyclopenta [c]pyrrol-1-yl)imidazo[1,5-a]pyrazin-1-yl)-N-(pyridin-2-yl)benzamide], the IC50 was 104 nM.

As for `CC#CC(=O)N1C[C@@H]2C[C@]1(c1nc(-c3ccc(C(=O)Nc4ccccn4)cc3)c3c(N)nccn13)CCO2` [Example 8], the IC50 was 197 nM. Then `CC#CC(=O)N1C[C@H]2[C@@H]([C@H]1c1nc(-c3ccc(C(C)(O)c4ccccc4)cc3)c3c(N)nccn13)C2(C)C` (stereo partly drawn) [Example 76], with 46 nM. For `CC#CC(=O)N1CCC2(CC1)CC(c1nc(-c3ccc(C(=O)Nc4ccccn4)cc3)c3c(N)nccn13)CO2` (stereo not drawn) [Example 27], the IC50 came out at 673 nM. On to `CC#CC(=O)N1C2CC[C@@H](C2)C1c1nc(-c2ccc(C(=O)Nc3cc(C)ccn3)cc2)c2c(N)nccn12` (stereo partly drawn) [Example 63], for which the half-maximal inhibitory concentration (IC50) stood at 57 nM.

As for `CC#CC(=O)N1CCC2CC21c1nc(-c2ccc(C(C)(O)c3ccccc3)cc2)c2c(N)nccn12` (stereo not drawn) [Example 83], the concentration for half-maximal inhibition (IC50) is 46 nM. Then `C=CC(=O)N1C2C[C@@H](C1c1nc(-c3ccc(C(C)(O)c4ccccc4)cc3)c3c(N)nccn13)N(C(C)=O)C2` (stereo partly drawn) [Example 90], with 79 nM; and `C=CC(=O)N1CC2C[C@H]1C(c1nc(-c3ccc(C(=O)Nc4ccccn4)cc3)c3c(N)nccn13)N2` (stereo partly drawn) [Example 19], with 400 nM; and `C=CC(=O)N1C(c2nc(-c3ccc(C(=O)Nc4cc(C)ccn4)cc3)c3c(N)nccn23)CC2CC21` (stereo not drawn) [Example 64], with 87 nM.

Regarding `CC#CC(=O)N1CCC2CC21c1nc(-c2ccc(Oc3ccccc3)cc2)c2c(N)nccn12` (stereo not drawn) [Example 103], the IC50 turned out to be 271 nM. In the case of `C=CC(=O)N1C[C@H]2[C@@H]([C@H]1c1nc(-c3ccc(C(C)(O)c4ccccc4)cc3)c3c(N)nccn13)C2(C)C` (stereo partly drawn) [Example 75] it was 57 nM. Then `CC#CC(=O)N1CC2COC[C@]2(c2nc(-c3ccc(C(=O)Nc4ccccn4)cc3)c3c(N)nccn23)C1` (stereo partly drawn) [Example 39], with 68 nM; and `CC#CC(=O)N1CCC2(CC2c2nc(-c3ccc(C(=O)Nc4ccccn4)cc3)c3c(N)nccn23)C1` (stereo not drawn) [Example 31], with 736 nM. Then `C=CC(=O)N1CC2CCC1(c1nc(-c3ccc(C(=O)Nc4ccccn4)cc3)c3c(N)nccn13)C2` (stereo not drawn) [Example 122, 4-(3-(2-acryloyl-2-azabicyclo[2.2.1]heptan-1-yl)-8-aminoimidazo[1,5-a]pyrazin-1-yl)-N-(pyridin-2-yl)benzamide], with 49 nM; and `C=CC(=O)N1C[C@@H]2C[C@]1(c1nc(-c3ccc(C(=O)Nc4ccccn4)cc3)c3c(N)nccn13)CCO2` [Example 7], with 155 nM.

For the compound `C=CC(=O)N1C[C@H]2[C@@H]([C@H]1c1nc(-c3ccc(C(=O)Nc4cc(C)ccn4)cc3)c3c(N)nccn13)C2(C)C` [Example 60], the concentration for half-maximal inhibition (IC50) worked out at 51 nM. In the case of `CC#CC(=O)NC12CC3CC(C1)CC(c1nc(-c4ccc(C(=O)Nc5ccccn5)cc4)c4c(N)nccn14)(C3)C2` [Example 29] it was 216 nM. Then `CC#CC(=O)N1CC2(CC2)C[C@H]1c1nc(-c2ccc(C(=O)Nc3cc(C(F)(F)F)ccn3)cc2)c2c(N)nccn12` [Example 40, (S)-4-(8-amino-3-(5-(but-2-ynoyl)-5-azaspiro[2.4]heptan-6-yl)imidazo[1,5-a]pyrazin-1-yl 1)-N-(4-(trifluoromethyl)pyridin-2-yl)benzamide], with 97 nM; and `C=CC(=O)N1CC2COC[C@]2(c2nc(-c3ccc(C(=O)Nc4ccccn4)cc3)c3c(N)nccn23)C1` (stereo partly drawn) [Example 38], with 66 nM; and `CC#CC(=O)N1C(c2nc(-c3ccc(Oc4ccccc4)cc3)c3c(N)nccn23)CC2CC21` (stereo not drawn) [Example 101], with 77 nM.

On to `C=CC(=O)N1C2CN[C@@H](C2)C1c1nc(-c2ccc(C(=O)Nc3cc(Cl)ccn3)cc2)c2c(N)nccn12` (stereo partly drawn) [Example 72], for which the half-maximal inhibitory concentration (IC50) came to 97 nM. In the case of `CC#CC(=O)N1C2C[C@@H](C1c1nc(-c3ccc(C(=O)Nc4cc(C(F)(F)F)ccn4)cc3)c3c(N)nccn13)N(C(C)C)C2` (stereo partly drawn) [Example 57] it was 59 nM; in that of `C=CC(=O)N1CC2CCC2(c2nc(-c3ccc(C(=O)Nc4ccccn4)cc3)c3c(N)nccn23)C1` (stereo not drawn) [Example 34], 66 nM; in that of `CC(C)/C=C(/C#N)C(=O)N1CC2(CC2)C[C@H]1c1nc(-c2ccc(C(=O)Nc3ccccn3)cc2)c2c(N)nccn12` [Example 116, (S,Z)-4-(8-amino-3-(5-(2-cyano-4-methyl-2-pentenoyl)-5-azaspiro [2.4]heptan-6-yl)imidazo[1,5-a]pyrazin-1-yl)-N-(pyridin-2-yl)benzamide], 276 nM. Regarding `CC#CC(=O)N1C(c2nc(-c3ccc(C(=O)Nc4cc(C)ccn4)cc3)c3c(N)nccn23)CC2CC21` (stereo not drawn) [Example 65], the IC50 was 58 nM. As for `C=CC(=O)N1CCC2CC21c1nc(-c2ccc(C(=O)Nc3cc(C(F)(F)F)ccn3)cc2)c2c(N)nccn12` (stereo not drawn) [Example 58], the concentration for half-maximal inhibition (IC50) is 78 nM. In the case of `CC#CC(=O)N1CC2C[C@H]1C(c1nc(-c3ccc(C(=O)Nc4ccccn4)cc3)c3c(N)nccn13)N2` (stereo partly drawn) [Example 21] it was 672 nM; in that of `C=CC(=O)N1C(c2nc(-c3ccc(C(=O)Nc4ccccn4)cc3)c3c(N)nccn23)CC2CC21` (stereo not drawn) [Example 24], 176 nM. Then `CC#CC(=O)N1C(c2nc(-c3ccc(C(=O)Nc4cc(C(F)(F)F)ccn4)cc3)c3c(N)nccn23)CC2CC21` (stereo not drawn) [Example 51], with 54 nM; and `C=CC(=O)N1C(c2nc(-c3ccc(C(C)(O)c4ccccc4)cc3)c3c(N)nccn23)CC2CC21` (stereo not drawn) [Example 81], with 178 nM; and `C=CC(=O)N1CCC2(CC2c2nc(-c3ccc(C(=O)Nc4ccccn4)cc3)c3c(N)nccn23)C1` (stereo not drawn) [Example 30], with 724 nM. For `CC#CC(=O)N1C(c2nc(-c3ccc(C(=O)Nc4ccccn4)cc3)c3c(N)nccn23)CC2CC21` (stereo not drawn) [Example 25], the half-maximal inhibitory concentration (IC50) was 342 nM. Then `C=CC(=O)N1C2C[C@@H](C1c1nc(-c3ccc(C(C)(O)c4ccccc4)cc3)c3c(N)nccn13)N(C)C2` (stereo partly drawn) [Example 88], with 51 nM. In the case of `CN(C/C=C/C(=O)N1CC2(CC2)C[C@H]1c1nc(-c2ccc(C(=O)Nc3ccccn3)cc2)c2c(N)nccn12)C1CC1` [Example 114, (S,E)-4-(8-amino-3-(5-(4-(cyclopropyl(methyl)amino)-2-butenoyl)-5-azaspiro[2.4]heptan-6-yl)imidazo[1,5-a]pyrazin-1-yl)-N-(pyridin-2-yl)benzamide] it was 81 nM. Turning to `C=CC(=O)N1CCC2CC21c1nc(-c2ccc(Oc3ccccc3)cc2)c2c(N)nccn12` (stereo not drawn) [Example 102], the IC50 was 175 nM. With `CC#CC(=O)N1C[C@H]2[C@@H]([C@H]1c1nc(-c3ccc(C(=O)Nc4cc(C)ccn4)cc3)c3c(N)nccn13)C2(C)C` [Example 61], the IC50 was 31 nM. Turning to `C=CC(=O)N1CC2C[C@H]1C(c1nc(-c3ccc(C(=O)Nc4ccccn4)cc3)c3c(N)nccn13)N2C(C)=O` (stereo partly drawn) [Example 20], the concentration for half-maximal inhibition (IC50) was 372 nM. Then `CC#CC(=O)N1CC2(CCNCC2)CC1c1nc(-c2ccc(C(=O)Nc3ccccn3)cc2)c2c(N)nccn12` (stereo not drawn) [Example 37], with 46 nM.
